Reference: patent US6610687B1, “Benzofuranylsulfonates” (Bayer Aktiengesellschaft, priority 1999, dated 2003)

Columns and labels:
human PMN (neutrophils) = assay: Inhibition of FMLP-stimulated production of superoxide radical anions; assay type: cell-based; details: Neutrophil, read-out: IC50 O2^−
Protocol: 1. Preparation of Human PMN
Blood was taken from healthy subjects by venous puncture and neutrophils were purified by dextran sedimentation and resuspended in the buffered medium.
2. Inhibition of FMLP-stimulated Production of Superoxide Racidal Anions.
Neutrophils (2.5×10^5 ml^−1) were mixed with cytochrome C (1.2 mg/ml) in the wells of a microtitre plate. Compounds according to the invention were added in dimethyl sulphoxide (DMSO). Compound concentration ranged from 2.5 nM to 10 μM, the DMSO concentration was 0.1% v/v in all wells. After addition of cytochalasin b (5 μg×ml^−1) the plate was incubated for 5 min at 37° C. Neutrophils were then stimulated by addition of 4×10^−8 M FMLP and superoxide generation measured as superoxide dismutase inhibitable reduction of cytochrome C by monitoring the OD550 in a microtitre plate spectrophotometer, e.g. a thermomax microtitre plate spectrophotometer. Initial rates were calculated using a kinetic calculation programme such as a softmax programme. Blank wells contained 200 units of superoxide dismutase.
The inhibition of superoxide production was calculated as follows: [formula]
Rx=Rate of the well containing the compound according to the invention.
Ro=Rate in the control well.
Rb=Rate in the superoxide dismutase containing blank well.

[1] = molecular target: PMN phosphodiesterase (PDE IV); assay: Assay of PMN phosphodiesterase; assay type: biochemical; details: particulate fraction from human PMN, treated with sodium vanadate/glutathione
Protocol: 4. Assay of PMN Phosphodiesterase
This was performed as a particulate fraction from human PMN essentially as described by Souness and Scott (Biochem. J. 291, 389-395, 1993). Particulate fractions were treated with sodium vanadate/glutathione as described by the authors to express the descrete stereospecific site on the phosphodiesterase enzyme.

Structure (SMILES) | IC50 (human PMN (neutrophils)) [nM] | IC50 [1] [nM]
Cc1nn(C)c(Cl)c1S(=O)(=O)Oc1ccc2c(NC(N)=O)c(C(=O)c3ccc(F)cc3F)oc2c1 [Example 24] | 60 | 130
CC(=O)Nc1ccc(S(=O)(=O)Oc2ccc3c(NC(N)=O)c(C(=O)c4ccc(Cl)cc4)oc3c2)cc1 [Example 13] | 65 | 21
CN(C)S(=O)(=O)Oc1ccc2c(NC(N)=O)c(C(=O)c3cc(Cl)ccc3Cl)oc2c1 [Example 46] | 35 | 6
NC(=O)Nc1c(C(=O)c2ccc(Cl)cc2Cl)oc2cc(OS(=O)(=O)c3cccc4cccnc34)ccc12 [Example 49] | 1 | 1
NC(=O)Nc1c(C(=O)c2ccc(Cl)cc2Cl)oc2cc(OS(=O)(=O)Cc3ccc(Cl)nc3)ccc12 [Example 47] | 20 | 33
Cc1ccc(C(=O)c2oc3cc(OS(=O)(=O)c4cn(C)cn4)ccc3c2NC(N)=O)c(C)c1 [Example 36] | 7 | 1
NC(=O)Nc1c(C(=O)c2ccc(Cl)cc2Cl)oc2cc(OS(=O)(=O)c3ccc(-c4ccccn4)s3)ccc12 [Example 21] | 20 | 40
